Test results published in PubChem BioAssay AID1963976 (Molecular Pharmacology Branch, DTP, NCI, 2024).
pIC50: −log10 of the molar value.

System: 435261-313-R-J1-PDC tumor spheroid viability
Test: Anticancer human tumor 435261-313-R-J1-PDC patient-derived colon adenocarcinoma cell line growth inhibition [PI3K]
Settings: spheroids with HUVEC and MSC; for pIC50: curve of first compound; for viability, T/C: stronger effect = lower value
In short: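 Tumor cells were combined with HUVEC and MSCs into spheroids, then dosed with PI3K-inhibitor combinations over half-log ranges capped near clinical Cmax or 10 microM.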

[1] = second compound 0.0316 µM, first compound 0.0316 µM
[2] = second compound 0.0316 µM, first compound 0.1 µM
[3] = second compound 0.1 µM, first compound 0.0316 µM
[4] = second compound 0.1 µM, first compound 0.1 µM
[5] = second compound 0.316 µM, first compound 0.0316 µM
[6] = second compound 0.316 µM, first compound 0.1 µM
[7] = second compound 1 µM, first compound 0.0316 µM
[8] = second compound 1 µM, first compound 0.1 µM
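Also: spheroids exposed to compounds for 7 days.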

In the case of `C=CC(=O)N1CCN(c2nc(=O)n(-c3c(C)ccnc3C(C)C)c3nc(-c4c(O)cccc4F)c(F)cc23)C(C)C1` (centres undefined) + CC(Nc1ccc2c(c1)OCCn1cc(N3C(=O)OCC3C(F)F)nc1-2)C(N)=O, the pIC50 (second compound 0.00316 µM) was under 5.00, the pIC50 (second compound 0.01 µM) was under 5.00 and the pIC50 (second compound 0.0316 µM) was under 5.00. It also gave a pIC50 (second compound 0.1 µM) of over 7.50, a pIC50 (second compound 0.316 µM) of over 7.50 and a pIC50 (second compound 1 µM) of over 7.50. The viability, T/C (second compound 0.00316 µM, first compound 0.0316 µM) was 83.2%, the viability, T/C (second compound 0.00316 µM, first compound 0.1 µM) was 81.4% and the viability, T/C (second compound 0.00316 µM, first compound 0.316 µM) was 111%. The viability, T/C (second compound 0.00316 µM, first compound 1 µM) was 126%, the viability, T/C (second compound 0.00316 µM, first compound 3.16 µM) was 117% and the viability, T/C (second compound 0.00316 µM, first compound 10 µM) was 120%. The viability, T/C (second compound 0.01 µM, first compound 0.0316 µM) was 99.2%, the viability, T/C (second compound 0.01 µM, first compound 0.1 µM) was 88.4% and the viability, T/C (second compound 0.01 µM, first compound 0.316 µM) was 95.1%. For the same compound, the viability, T/C (second compound 0.01 µM, first compound 1 µM) was 89.5%, the viability, T/C (second compound 0.01 µM, first compound 3.16 µM) was 91.7% and the viability, T/C (second compound 0.01 µM, first compound 10 µM) was 111%. For the same compound, the viability, T/C [1] was 70.7%, the viability, T/C [2] was 78.6% and the viability, T/C (second compound 0.0316 µM, first compound 0.316 µM) was 71.5%. For the same compound, the viability, T/C (second compound 0.0316 µM, first compound 1 µM) was 70.2%, the viability, T/C (second compound 0.0316 µM, first compound 3.16 µM) was 87.4% and the viability, T/C (second compound 0.0316 µM, first compound 10 µM) was 101%. The viability, T/C [3] was 49.7%, the viability, T/C [4] was 42.6% and the viability, T/C (second compound 0.1 µM, first compound 0.316 µM) was 45.5%. The viability, T/C (second compound 0.1 µM, first compound 1 µM) was 37.9%, the viability, T/C (second compound 0.1 µM, first compound 3.16 µM) was 60.9% and the viability, T/C (second compound 0.1 µM, first compound 10 µM) was 54.5%. The viability, T/C [5] was 20.8%, the viability, T/C [6] was 22% and the viability, T/C (second compound 0.316 µM, first compound 0.316 µM) was 27%. The viability, T/C (second compound 0.316 µM, first compound 1 µM) was 22.8%, the viability, T/C (second compound 0.316 µM, first compound 3.16 µM) was 25.5% and the viability, T/C (second compound 0.316 µM, first compound 10 µM) was 21.1%. It also gave a viability, T/C [7] of 20.2%, a viability, T/C [8] of 16.5% and a viability, T/C (second compound 1 µM, first compound 0.316 µM) of 18.1%. For the same compound, the viability, T/C (second compound 1 µM, first compound 1 µM) was 20.4%, the viability, T/C (second compound 1 µM, first compound 3.16 µM) was 14.9% and the viability, T/C (second compound 1 µM, first compound 10 µM) was 17.9%.

In the case of `CC(=O)c1c(C)c2cnc(Nc3ccc(N4CCNCC4)cn3)nc2n(C2CCCC2)c1=O` + Cc1nc(NC(=O)N2CCCC2C(N)=O)sc1-c1ccnc(C(C)(C)C(F)(F)F)c1, the pIC50 (second compound 0.0316 µM) was under 7.00, the pIC50 (second compound 0.1 µM) was under 7.00 and the pIC50 (second compound 0.316 µM) was 9.50. The pIC50 (second compound 1 µM) was over 9.50, the pIC50 (second compound 3.16 µM) was over 9.50 and the pIC50 (second compound 10 µM) was over 9.50. It also gave a viability, T/C (second compound 0.0316 µM, first compound 0.000316 µM) of 61.5%, a viability, T/C (second compound 0.0316 µM, first compound 0.001 µM) of 91.9% and a viability, T/C (second compound 0.0316 µM, first compound 0.00316 µM) of 96.5%. The viability, T/C (second compound 0.0316 µM, first compound 0.01 µM) was 66%, the viability, T/C [1] was 88.5% and the viability, T/C [2] was 59.1%. The viability, T/C (second compound 0.1 µM, first compound 0.000316 µM) was 68%, the viability, T/C (second compound 0.1 µM, first compound 0.001 µM) was 69.4% and the viability, T/C (second compound 0.1 µM, first compound 0.00316 µM) was 69.5%. For the same compound, the viability, T/C (second compound 0.1 µM, first compound 0.01 µM) was 69.5%, the viability, T/C [3] was 74.7% and the viability, T/C [4] was 66.1%. For the same compound, the viability, T/C (second compound 0.316 µM, first compound 0.000316 µM) was 40.9%, the viability, T/C (second compound 0.316 µM, first compound 0.001 µM) was 60.9% and the viability, T/C (second compound 0.316 µM, first compound 0.00316 µM) was 40.9%. The viability, T/C (second compound 0.316 µM, first compound 0.01 µM) was 52.5%, the viability, T/C [5] was 41.3% and the viability, T/C [6] was 32.5%. It also gave a viability, T/C (second compound 1 µM, first compound 0.000316 µM) of 26.9%, a viability, T/C (second compound 1 µM, first compound 0.001 µM) of 27.5% and a viability, T/C (second compound 1 µM, first compound 0.00316 µM) of 35.2%. The viability, T/C (second compound 1 µM, first compound 0.01 µM) was 33.5%, the viability, T/C [7] was 26.6% and the viability, T/C [8] was 21.2%. It also gave a viability, T/C (second compound 3.16 µM, first compound 0.000316 µM) of 14.7%, a viability, T/C (second compound 3.16 µM, first compound 0.001 µM) of 14.2% and a viability, T/C (second compound 3.16 µM, first compound 0.00316 µM) of 13.9%. The viability, T/C (second compound 3.16 µM, first compound 0.01 µM) was 16.8%, the viability, T/C (second compound 3.16 µM, first compound 0.0316 µM) was 16.9% and the viability, T/C (second compound 3.16 µM, first compound 0.1 µM) was 15.9%. It also gave a viability, T/C (second compound 10 µM, first compound 0.000316 µM) of 10.2%, a viability, T/C (second compound 10 µM, first compound 0.001 µM) of 7.93% and a viability, T/C (second compound 10 µM, first compound 0.00316 µM) of 7.66%. The viability, T/C (second compound 10 µM, first compound 0.01 µM) was 9.02%, the viability, T/C (second compound 10 µM, first compound 0.0316 µM) was 10.4% and the viability, T/C (second compound 10 µM, first compound 0.1 µM) was 5.66%.
